Results taken from PubChem BioAssay AID2060496 (Molecular Pharmacology Branch, DTP, NCI, 2025).

System: 276233-004-R-J1-PDC complex spheroid viability
Experiment: Anticancer human tumor 276233-004-R-J1-PDC patient-derived colon adenocarcinoma cell line growth inhibition [GQUAD]
Details: for IC50: curve of first compound; for viability, T/C: stronger effect = lower value
Outline: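 Tumor cells were grown as complex spheroids with HUVEC endothelial cells and mesenchymal stem cells as stroma. G-quadruplex stabilizers were combined with targeted agents over half-log dilutions from near the clinical Cmax, or from 10 microM.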

[1] = second compound 0.0316 µM, first compound 0.0316 µM
[2] = second compound 0.0316 µM, first compound 0.1 µM
[3] = second compound 0.0316 µM, first compound 0.316 µM
[4] = second compound 0.0316 µM, first compound 1 µM
[5] = second compound 0.0316 µM, first compound 3.16 µM
[6] = second compound 0.0316 µM, first compound 10 µM
[7] = second compound 0.1 µM, first compound 0.0316 µM
[8] = second compound 0.1 µM, first compound 0.1 µM
[9] = second compound 0.1 µM, first compound 0.316 µM
[10] = second compound 0.1 µM, first compound 1 µM
[11] = second compound 0.1 µM, first compound 3.16 µM
[12] = second compound 0.1 µM, first compound 10 µM
[13] = second compound 0.316 µM, first compound 0.0316 µM
[14] = second compound 0.316 µM, first compound 0.1 µM
[15] = second compound 0.316 µM, first compound 0.316 µM
[16] = second compound 0.316 µM, first compound 1 µM
[17] = second compound 0.316 µM, first compound 3.16 µM
[18] = second compound 0.316 µM, first compound 10 µM
[19] = second compound 1 µM, first compound 0.0316 µM
[20] = second compound 1 µM, first compound 0.1 µM
[21] = second compound 1 µM, first compound 0.316 µM
[22] = second compound 1 µM, first compound 1 µM
[23] = second compound 1 µM, first compound 3.16 µM
[24] = second compound 1 µM, first compound 10 µM
[25] = second compound 3.16 µM, first compound 0.0316 µM
[26] = second compound 3.16 µM, first compound 0.1 µM
[27] = second compound 3.16 µM, first compound 0.316 µM
[28] = second compound 3.16 µM, first compound 1 µM
[29] = second compound 3.16 µM, first compound 3.16 µM
[30] = second compound 3.16 µM, first compound 10 µM
[31] = second compound 10 µM, first compound 0.0316 µM
[32] = second compound 10 µM, first compound 0.1 µM
[33] = second compound 10 µM, first compound 0.316 µM
[34] = second compound 10 µM, first compound 1 µM
[35] = second compound 10 µM, first compound 3.16 µM
[36] = second compound 10 µM, first compound 10 µM
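Further: spheroids exposed to drugs for seven days.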
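Wherever viability, T/C is given: 100% = DMSO vehicle control viability.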

COc1cc(C2c3cc4c(cc3C(OC3OC5COC(C)OC5C(O)C3O)C3COC(=O)C23)OCO4)cc(OC)c1O (centres undefined) + Cc1[nH]c2ccc(F)cc2c1-c1nc2c3cccnc3c3ncccc3c2[nH]1
IC50 (second compound 0.0316 µM): > 10 µM | IC50 (second compound 0.1 µM): > 10 µM | IC50 (second compound 0.316 µM): > 10 µM | IC50 (second compound 1 µM): > 10 µM | IC50 (second compound 3.16 µM): 2.82 µM | IC50 (second compound 10 µM): < 0.0316 µM | viability, T/C [1]: 72.9% | viability, T/C [2]: 82.7% | viability, T/C [3]: 111% | viability, T/C [4]: 80.6% | viability, T/C [5]: 89.2% | viability, T/C [6]: 83.7% | viability, T/C [7]: 89.9% | viability, T/C [8]: 110% | viability, T/C [9]: 84.2% | viability, T/C [10]: 78.9% | viability, T/C [11]: 83.7% | viability, T/C [12]: 76.3% | viability, T/C [13]: 79.8% | viability, T/C [14]: 79.7% | viability, T/C [15]: 85.2% | viability, T/C [16]: 101% | viability, T/C [17]: 83% | viability, T/C [18]: 69% | viability, T/C [19]: 78.4% | viability, T/C [20]: 65.1% | viability, T/C [21]: 71.4% | viability, T/C [22]: 64.9% | viability, T/C [23]: 73.7% | viability, T/C [24]: 64.2% | viability, T/C [25]: 53% | viability, T/C [26]: 63.3% | viability, T/C [27]: 52% | viability, T/C [28]: 65.7% | viability, T/C [29]: 47.3% | viability, T/C [30]: 50.9% | viability, T/C [31]: 50.1% | viability, T/C [32]: 49.6% | viability, T/C [33]: 44.2% | viability, T/C [34]: 50.9% | viability, T/C [35]: 41% | viability, T/C [36]: 45%

O=c1[nH]cc(F)c(=O)[nH]1 + Cc1cnc(CNC(=O)c2c(=O)c3ccc(N4CCCN(C)CC4)nc3n3c2sc2ccccc23)cn1
IC50 (second compound 0.0316 µM): > 10 µM | IC50 (second compound 0.1 µM): > 10 µM | IC50 (second compound 0.316 µM): > 10 µM | IC50 (second compound 1 µM): > 10 µM | IC50 (second compound 3.16 µM): > 10 µM | IC50 (second compound 10 µM): > 10 µM | viability, T/C [1]: 86.8% | viability, T/C [2]: 82.2% | viability, T/C [3]: 90.7% | viability, T/C [4]: 81.2% | viability, T/C [5]: 98.8% | viability, T/C [6]: 97.5% | viability, T/C [7]: 97.1% | viability, T/C [8]: 96.5% | viability, T/C [9]: 89.1% | viability, T/C [10]: 89.7% | viability, T/C [11]: 95.1% | viability, T/C [12]: 102% | viability, T/C [13]: 87.4% | viability, T/C [14]: 99.8% | viability, T/C [15]: 99.1% | viability, T/C [16]: 85.6% | viability, T/C [17]: 98.6% | viability, T/C [18]: 99.1% | viability, T/C [19]: 78.2% | viability, T/C [20]: 87.6% | viability, T/C [21]: 80.4% | viability, T/C [22]: 90% | viability, T/C [23]: 92.7% | viability, T/C [24]: 94.4% | viability, T/C [25]: 82.7% | viability, T/C [26]: 74.9% | viability, T/C [27]: 79.2% | viability, T/C [28]: 82.8% | viability, T/C [29]: 83.7% | viability, T/C [30]: 82.2% | viability, T/C [31]: 69.8% | viability, T/C [32]: 79.3% | viability, T/C [33]: 80.5% | viability, T/C [34]: 86.2% | viability, T/C [35]: 61.8% | viability, T/C [36]: 79.6%
